Experimental data reported in patent US12286428B2 (BRISTOL-MYERS SQUIBB COMPANY, priority 2019, dated 2025).

Tests used:
[1] = system: Human whole blood, IL-6 levels after TLR2 agonist lipoteichoic acid; assay: IRAK4 Whole Blood Assay; assay type: cell-based; details: compounds 60 minutes at 37° C., lipoteichoic acid 10 μg/mL for 5 hours
Procedure: IRAK4 Whole Blood Assay Human whole blood containing the anti-coagulant ACD-A was plated in 384-well plate (25 μL/well) and incubated with compounds for 60 minutes at 37° C. in a 5% CO2 incubator. The blood was stimulated with a TLR2 agonist, 10 μg/mL final concentration of lipoteichoic acid (Invivogen, San Diego, CA) in 25 μL RPMI (Gibco) for 5 hours in a 5% CO2 incubator. At the end of the incubation, plates were centrifuged at 2300 rpm for 5 minutes. Supernatants were harvested and analyzed for IL-6 levels by Flow Cytometry beads assay (BD Biosciences, San Jose, CA).

[2] = target: T1, IRAK4 (Homo sapiens, UniProt Q9NWZ3); assay: IRAK4 Inhibition Assay; assay type: biochemical; details: ATP 500 μM, IRAK4 0.6 nM, 60 min room temperature, Caliper LABCHIP 3000
T1 sequence (Q9NWZ3 1-460): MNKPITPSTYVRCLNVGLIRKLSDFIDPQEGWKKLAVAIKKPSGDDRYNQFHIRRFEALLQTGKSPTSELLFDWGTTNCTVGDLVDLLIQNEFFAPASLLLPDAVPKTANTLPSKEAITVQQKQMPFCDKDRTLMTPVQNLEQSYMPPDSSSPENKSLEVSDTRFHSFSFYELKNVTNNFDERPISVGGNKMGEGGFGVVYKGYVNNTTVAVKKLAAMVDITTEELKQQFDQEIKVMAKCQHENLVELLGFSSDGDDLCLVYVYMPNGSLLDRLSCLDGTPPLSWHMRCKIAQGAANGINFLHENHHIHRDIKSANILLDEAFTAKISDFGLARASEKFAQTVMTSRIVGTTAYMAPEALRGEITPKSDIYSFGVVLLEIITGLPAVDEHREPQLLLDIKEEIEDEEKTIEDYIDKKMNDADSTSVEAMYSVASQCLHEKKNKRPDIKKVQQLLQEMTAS
Procedure: The assays were performed in U-bottom 384-well plates. […] The reaction was initiated by the combination of IRAK4 with substrates and test compounds. The reaction mixture was incubated at room temperature for 60 min. and terminated by adding 45 μL of 35 mM EDTA to each sample. The reaction mixture was analyzed on the Caliper LABCHIP® 3000 (Caliper, Hopkinton, MA) by electrophoretic separation of the fluorescent substrate and phosphorylated product. […] The final concentrations of reagents in the assays are ATP, 500 μM; FL-[…] peptide 1.5 μM; IRAK4, 0.6 nM; and DMSO, 1.6%.

[3] = FL-IPTSPITTTYFFFKKK peptide […]

Compound “1-(((2S,3S,4S)-3-ethyl-4-fluoro-5-oxotetrahydrofuran-2-yl)methoxy)-8-methyl-8,9-dihydrofuro[2,3-h]isoquinoline-6-carboxamide [Example 51]” has an IC50 [1] of 399 nM and an IC50 [2, 3] of 3.1 nM.
Compound “1-(((2S,3S,4S)-3-ethyl-4-fluoro-5-oxotetrahydrofuran-2-yl)methoxy)-8-methyl-8,9-dihydrofuro[2,3-h]isoquinoline-6-carboxamide [Example 52]” has an IC50 [2, 3] of 1.3 nM.
`NC(=O)c1cc2cccc(OC[C@@H]3CCC(=O)N3)c2n2ccnc12` [Example 1, (S)-9-((5-oxopyrrolidin-2-yl)methoxy)imidazo[1,2-a]quinoline-4-carboxamide] showed an IC50 [1] of 1420 nM and an IC50 [2, 3] of 20.6 nM.
For `CC[C@@H]1CC(=O)N[C@@H]1COc1cccc2cc(C(N)=O)c3nccn3c12` [Example 2, 9-(((2S,3R)-3-ethyl-5-oxopyrrolidin-2-yl)methoxy)imidazo[1,2-a]quinoline-4-carboxamide], the IC50 [1] was 306 nM and the IC50 [2, 3] was 15 nM.
For `CC[C@H]1CC(=O)N[C@@H]1COc1cccc2cc(C(N)=O)c3nccn3c12` [Example 3, 9-(((2S,3S)-3-ethyl-5-oxopyrrolidin-2-yl)methoxy)imidazo[1,2-a]quinoline-4-carboxamide], the IC50 [1] was 152 nM and the IC50 [2, 3] was 1.7 nM.
In the case of `CC[C@H]1[C@@H](COc2cccc3cc(C(N)=O)c4nccn4c23)NC(=O)[C@@H]1F` [Example 4, 9-(((2S,3S,4R)-3-ethyl-4-fluoro-5-oxopyrrolidin-2-yl)methoxy)imidazo[1,2-a]quinoline-4-carboxamide], the IC50 [1] is reported as 593 nM and the IC50 [2, 3] is reported as 2.6 nM.
With `CC[C@H]1[C@@H](COc2cccc3cc(C(N)=O)c4nccn4c23)NC(=O)[C@@]1(C)F` [Example 6, 9-(((2S,3 S,4S)-3-ethyl-4-fluoro-4-methyl-5-oxopyrrolidin-2-yl)methoxy)imidazo[1,2-a]quinoline-4-carboxamide] the IC50 [2, 3] was 518 nM.
For `NC(=O)c1cc2cccc(OC[C@H]3COCC(=O)N3)c2n2ccnc12` [Example 7, (R)-9-((5-oxomorpholin-3-yl)methoxy)imidazo[1,2-a]quinoline-4-carboxamide], the IC50 [2, 3] was 243 nM.
`CC[C@@H]1[C@H](F)C(=O)N[C@@H]1COc1cccc2cc(C(N)=O)c3nc(C(C)(C)O)cn3c12` [Example 13, 9-(((2S,3S,4S)-3-ethyl-4-fluoro-5-oxopyrrolidin-2-yl)methoxy)-2-(2-hydroxypropan-2-yl)imidazo[1,2-a]quinoline-4-carboxamide] gave an IC50 [2, 3] of 1430 nM.
In the case of `CC[C@H]1OC(=O)N[C@H]1COc1nccc2cc(C(N)=O)c3nccn3c12` [Example 23, 1-(((4S,5R)-5-ethyl-2-oxooxazolidin-4-yl)methoxy)imidazo[1,2-a][1,7]naphthyridine-6-carboxamide], the IC50 [2, 3] is reported as 262 nM.
`CC[C@@H]1OC(=O)N[C@H]1COc1nccc2cc(C(N)=O)c3nccn3c12` [Example 24, 1-(((4S,5S)-5-ethyl-2-oxooxazolidin-4-yl)methoxy)imidazo[1,2-a][1,7]naphthyridine-6-carboxamide] gave an IC50 [2, 3] of 176 nM.
With `CC[C@H]1OCC(=O)N[C@H]1COc1nccc2cc(C(N)=O)c3nccn3c12` [Example 25, 1-(((2R,3S)-2-ethyl-5-oxomorpholin-3-yl)methoxy)imidazo[1,2-a][1,7]naphthyridine-6-carboxamide] the IC50 [2, 3] was 1930 nM.
`CC[C@@H]1OCC(=O)N[C@@H]1COc1nccc2cc(C(N)=O)c3nccn3c12` [Example 26, 1-(((2S,3R)-2-ethyl-5-oxomorpholin-3-yl)methoxy)imidazo[1,2-a][1,7]naphthyridine-6-carboxamide] gave an IC50 [2, 3] of 80.4 nM.
For `NC(=O)c1cc2ccnc(OC[C@@H]3CNC(=O)N3)c2n2ccnc12` [Example 27, (S)-1-((2-oxoimidazolidin-4-yl)methoxy)imidazo[1,2-a][1,7]naphthyridine-6-carboxamide], the IC50 [2, 3] was 1820 nM.
`CC[C@@H]1CC(=O)N[C@@H]1COc1nc(C)cc2cc(C(N)=O)c3nccn3c12` [Example 28, 1-(((2S,3R)-3-ethyl-5-oxopyrrolidin-2-yl)methoxy)-3-methylimidazo[1,2-a][1,7]naphthyridine-6-carboxamide] showed an IC50 [2, 3] of 225 nM.
`CC[C@@H]1CC(=O)N[C@@H]1COc1nc(C)cc2cc(C(N)=O)c3nc(C)cn3c12` [Example 29, 1-(((2S,3R)-3-ethyl-5-oxopyrrolidin-2-yl)methoxy)-3,8-dimethylimidazo[1,2-a][1,7]naphthyridine-6-carboxamide] showed an IC50 [2, 3] of 601 nM.
`CC[C@@H]1CC(=O)N[C@@H]1COc1nccc2cc(C(N)=O)c3nc(C(F)(F)F)cn3c12` [Example 30, 1-(((2S,3R)-3-ethyl-5-oxopyrrolidin-2-yl)methoxy)-8-(trifluoromethyl)imidazo[1,2-a][1,7]naphthyridine-6-carboxamide] gave an IC50 ([2]; FL-[…] peptide 1.5 μM) of 1720 nM.
With `CC[C@H]1CC(=O)N[C@@H]1COc1nccc2cc(C(N)=O)c3nc(C(F)(F)F)cn3c12` [Example 31, 1-(((2S,3S)-3-ethyl-5-oxopyrrolidin-2-yl)methoxy)-8-(trifluoromethyl)imidazo[1,2-a][1,7]naphthyridine-6-carboxamide] the IC50 [2, 3] was 1060 nM.
In the case of `CC[C@@H]1[C@H](F)C(=O)N(CO)[C@@H]1COc1nccc2cc(C(N)=O)c3nccn3c12` [Example 32], the IC50 [2, 3] is reported as 62 nM.
For `CC[C@@H]1[C@H](F)C(=O)N[C@@H]1COc1cccc2cc(C(N)=O)c3ncnn3c12` [Example 38, 9-(((2S,3S,4S)-3-ethyl-4-fluoro-5-oxopyrrolidin-2-yl)methoxy)-[1,2,4]triazolo[1,5-a]quinoline-4-carboxamide], the IC50 [2, 3] was 60.3 nM.
`CC[C@@H]1[C@H](F)C(=O)N[C@@H]1COc1cccc2cc(C(N)=O)c3nc(C)nn3c12` [Example 40, 9-(((2S,3S,4S)-3-ethyl-4-fluoro-5-oxopyrrolidin-2-yl)methoxy)-2-methyl-[1,2,4]triazolo[1,5-a]quinoline-4-carboxamide] showed an IC50 [2, 3] of 39.1 nM.
`CC[C@@H]1CC(=O)N[C@@H]1COc1cccc2cc(C(N)=O)c3nncn3c12` [Example 41, 9-(((2S,3R)-3-ethyl-5-oxopyrrolidin-2-yl)methoxy)-[1,2,4]triazolo[4,3-a]quinoline-4-carboxamide] was tested, and the IC50 [2, 3] was 42.2 nM.
`CC[C@H]1CC(=O)N[C@@H]1COc1cccc2cc(C(N)=O)c3nncn3c12` [Example 42, 9-(((2S,3S)-3-ethyl-5-oxopyrrolidin-2-yl)methoxy)-[1,2,4]triazolo[4,3-a]quinoline-4-carboxamide] was tested, and the IC50 [2, 3] was 290 nM.
`CC[C@@H]1[C@H](F)C(=O)N[C@@H]1COc1cccc2cc(C(N)=O)c3nncn3c12` [Example 43, 9-(((2S,3S,4S)-3-ethyl-4-fluoro-5-oxopyrrolidin-2-yl)methoxy)-[1,2,4]triazolo[4,3-a]quinoline-4-carboxamide] showed an IC50 [2, 3] of 16.2 nM.
With `CC[C@@H]1[C@H](F)C(=O)N[C@@H]1COc1cccc2cc(C(N)=O)c3nnnn3c12` [Example 45, 9-(((2S,3S,4S)-3-ethyl-4-fluoro-5-oxopyrrolidin-2-yl)methoxy)tetrazolo[1,5-a]quinoline-4-carboxamide] the IC50 [2, 3] was 70 nM.
For `CC[C@@H]1[C@H](F)C(=O)N[C@@H]1COc1nccc2cc(C(N)=O)c3ncnn3c12` [Example 47, 9-(((2S,3S,4S)-3-ethyl-4-fluoro-5-oxopyrrolidin-2-yl)methoxy)-[1,2,4]triazolo[1,5-a][1,7]naphthyridine-4-carboxamide], the IC50 [2, 3] was 78.1 nM.
`CC[C@@H]1CC(=O)N[C@@H]1COC1=C(F)C=CC2C=C(C(N)=O)c3nccn3C12` (stereo partly drawn) [Example 59, 9-(((2S,3R)-3-ethyl-5-oxopyrrolidin-2-yl)methoxy)-8-fluoro-5a,9a-dihydroimidazo[1,2-a]quinoline-4-carboxamide] gave an IC50 [2, 3] of 112 nM.
For `CC[C@@H]1CC(=O)N[C@@H]1COC1=CC=CC2C=C(C#N)c3nccn3C12` (stereo partly drawn) [Example 60, 9-(((2S,3R)-3-ethyl-5-oxopyrrolidin-2-yl)methoxy)-5a,9a-dihydroimidazo[1,2-a]quinoline-4-carbonitrile], the IC50 [2, 3] was 350 nM.
In the case of `CC[C@@H]1[C@H](F)C(=O)N[C@@H]1COC1=CC=CC2C(NC)=C(C(N)=O)c3nccn3C12` (stereo partly drawn) [Example 61, 9-(((2S,3S,4S)-3-ethyl-4-fluoro-5-oxopyrrolidin-2-yl)methoxy)-5-(methylamino)-5a,9a-dihydroimidazo[1,2-a]quinoline-4-carboxamide], the IC50 [2, 3] is reported as 94.4 nM.
`CC[C@@H]1[C@H](F)C(=O)N[C@@H]1COc1nccc2cc(C(N)=O)c3c(c12)CC(C)(C)O3` [Example 63, 1-(((2S,3S,4S)-3-ethyl-4-fluoro-5-oxopyrrolidin-2-yl)methoxy)-8,8-dimethyl-8,9-dihydrofuro[2,3-h]isoquinoline-6-carboxamide] gave an IC50 [2, 3] of 2.2 nM.
